Measurements: patent EP0452507A1, “MEDICINE COMPRISING TOCOPHERYL GLYCOSIDE AS ACTIVE INGREDIENT” (NIPPON HYPOX LABORATORIES INCORPORATED, priority 1989, dated 1991)

Legend:
[1] = system: antigen-adjuvant-induced inflammation; assay: antigen-adjuvant-induced inflammation, right hind paw swelling by volumetry; format: in vivo, rats; settings: 10 mg/kg intraperitoneally
Protocol: (§1) At first, five groups each consisting of five SD male rats weighing 180 to 220 g (total 25 rats) were prepared, and each rat was measured for a size of the subplantar region of the right hind paw. As an antigen to cause an antigen-adjuvant-induced inflammation, 0.2 mg/rat of egg-white albumin was used. Further, as an immune aid (adjuvant), a mixture consisting of 4 mg/rat of aluminum hydroxide and 0.1 ml/rat of pertussis vaccine was prepared.
One out of the five groups was used as Control group. A physiological saline solution of 10 % Nikkol (trade name, dissolving aid, supplied by Nikko Chemical Co., Ltd.) was administered intraperitoneally to each rat, and 0.5 hour after the administration of the physiological saline solution of 10 % Nikkol, the above antigen and adjuvant were administered intracutaneously into the subplantar region of the right hind paw. Then, 0.5, 1, 2, 4, 6, 12 and 24 hours after the administration of the antigen and adjuvant, the swelling on the subplantar region of the right hind paw of each rat was measured by volumetry. And, the average of swelling ratios of the group in every measurement was determined on the basis of the measurement values of the sizes of subplantar regions of the right hind paws of the rats obtained before the administration of the physiological saline solution of 10 % Nikkol.
One of the remaining four groups was used as Example group @. A physiological saline solution of 10 % Nikkol containing VIE-MAN was administered intraperitoneally into each rat of this group in such a dose that the amount of VIE-MAN was 10 mg/kg, and 0.5 hours after the administration of the physiological saline solution of 10 % Nikkol containing VIE-MAN, the above antigen and adjuvant were administered intracutaneously into the subplantar region of the right hind paw. Thereafter, the swelling on the subplantar region of the right hind paw of each rat was measured in the same manner as that for Control group, and the average of swelling ratios of the group in every measurement was determined.
(§2) The same procedure as that for Example group ⑧ was carried out except that a physiological saline solution of 10 % Nikkol containing hydrocortisone which was an anti-inflammatory preparation (immunosuppressive preparation) in place of the physiological saline solution of 10 % Nikkol containing VIE-MAN was administered intraperitoneally in such a dose that the amount of the hydrocortisone was 10 mg/kg.
as §2, with “diphenhydramine” for “hydrocortisone”, “antihistamine” for “anti-inflammatory”, “preparation” for “preparation (immunosuppressive preparation)”
as §2, with “containing indomethacin” for “containing hydrocortisone”, “was a nonsteroidal” for “was an”, “preparation (antipyretic analgesic antiphlogistic” for “preparation (immunosuppressive”, “the indomethacin” for “the hydrocortisone”
as §1, with “first, four” for “first, five”, “five male” for “five”, “SD” for “SD male”, “(total 20” for “(total 25”, “an antigen- adjuvant-induced” for “an antigen-adjuvant-induced”, “was prepared.” for “was used.”
One out of the four groups was used an Control group, and the procedure for Control group in Example 4 was repeated to determine the average of the swelling ratios as a group unit.

[2] = system: stomach (mucosal ulcer in the glandular portion); format: in vivo, rats; settings: rat, in vivo
Protocol: 15 male SD rats weighing 180 to 220 g were used. These rats were fasted for 24 hours, and separated to three groups each consisting of 5 rats.
Then, one group was used as Control group. A physiological saline solution of 10 % Nikkol was administered intraperitoneally, and the rats were sacrificed with ether 16 hours after the administration. The stomach of each rat was removed, and after 10 ml of physiological saline was injected into the stomachs, the stomachs were fixed by immersing them in a 1 % formalin for 10 minutes. Each stomach was dissected along the greater curvatura, and the length (mm) of mucosal ulcer which occurred in the glandular portion was measured under an anatomical microscope (x 10). The average of the ulcer lengths of the five rats was taken as an ulcer index.
One out of the remaining two groups was used as Example group @. The procedure for Control group was repeated except that a physiological saline solution of 10 % Nikkol containing VIE-MAN in place of the physiological saline solution of 10 % Nikkol was administered intraperitoneally in such a dose that the amount of VIE-MAN was 300 mg/kg, and the ulcer index was determined.
The remaining one group was used as Comparative Example group ⓘ. The procedure for Example group 17 was repeated except that a physiological saline solution of 10 % Nikkol containing indomethacin, which was a nonsteroidal anti-inflammatory preparation (antipyretic analgesic antiphlogistic preparation), in place of the physiological saline solution of 10 % Nikkol was administered intraperitoneally in such a dose that the amount of the indomethacin was 20 mg/kg, and the ulcer index was determined.

[3] = system: carrageenin-induced inflammation; assay: carrageenin-induced inflammation, right hind paw swelling by volumetry; format: in vivo, rats; settings: Example 7, Fig. 6
Protocol: Six groups each consisting of five male SD rats weighing 180 to 220 g were used (total 30 rats), and each rat was measured for a size of the subplantar region1 of the right hind paw.
In order to induce carrageenin-induced inflammation, 0.1 ml/rat of a physiological saline solution of 1 % X-carrageenin was prepared.
One out of the six groups was used as Control group. A physiological saline solution of 10 % Nikkol was administered intraperitoneally to each rat of this group, and 0.5 hours after the administration of the physiological saline solution of 10 % Nikkol, 0.1 ml of the physiological saline solution of 1 % X-carrageenin was administered intracutaneously into the subplantar region of the right hind paw of each rat. Then, 0.5, 1, 2, 3 and 4 hours after the administration of […] of the physiological saline solution of 1 % X-carrageenin, the swelling on the subplantar region of the right hind paw of each rat was measured by volumetry, arid the average of swelling ratios of the group in every measurement was determined on the basis of the measurement values of the sizes of subplantar regions of the right hind paws of the rats obtained before the administration of the physiological saline solution of 10 % Nikkol solution.
The procedure for Control group was repeated except that a physiological saline solution of 10 % Nikkol containing VIE-MAN in place of the physiological saline solution of 10 % Nikkol was administered intraperitoneally in such a dose that the amount of VIE-MAN was 10 mg/kg.
The procedure for Control group was repeated except that a physiological saline solution of 10 % Nikkol containing VIE-MAN in place of the physiological saline solution of 10 % Nikkol was administered intraperitoneally in such a dose that the amount of VIE-MAN was 30 mg/kg.
The procedure for Control group was repeated except that a physiological saline solution of 10 % Nikkol containing VIE-MAN in place of the physiological saline solution of 10 % Nikkol was administered intraperitoneally in such a dose that the amount of VIE-MAN was 100 mg/kg.
(§3) The procedure for Example groups ⑭, ⑮ and ⑯ was repeated except that a physiological saline solution of 10 % Nikkol containing cortisone acetate which was a steroidal anti-inflammatory preparation (immunosuppressive preparation) in place of the physiological saline solution of 10 % Nikkol containing VIE-MAN was administered intraperitoneally in such a dose that the amount of the cortisone acetate was 10 mg/kg.
as §3, with “indomethacin” for “cortisone acetate”, “nonsteroidal” for “steroidal”, “(antipyretic analgesic antiphlogistic” for “(immunosuppressive”

IgE antibody = format: in vivo, rats
Protocol: At first, 20 male SD rats weighing 180 to 220 g were prepared. Egg-white albumin in an amount of 1 mg per rat was prepared as an antigen to induce the IgE antibody-antigen mediating immune response. Further, a mixture of 20 mg/rat of aluminum hydroxide with 0.6 mi/rat of pertussis vaccine was prepared as an immune aid (adjuvant).
Then, the above antigen and the above adjuvant were equally administered intracutaneously into the four footpads of each rat for sensitization.
24 Hours after the sensitization, the footpad swelling of each rat was measured by volumetry to determine the swelling ratio (unit: %). Then, the rats were separated into four groups each consisting of 5 rats such that the average swelling ratio of one group was nearly equal to that of another group.
Thereafter, one of the four groups was used as Control group, and a physiological saline solution of 10 % Nikkol (trade name, dissolving aid, supplied by Nikko Chemical Co., Ltd.) was administered intraperitoneally to each rat for the 11 consecutive days after the group separation, and on 15th day after the group separation, the serum of each rat was collected, and measured for an IgE antibody amount by means of a 48-hour homologous PCA reaction (passive cutaneous anaphylaxis reaction) as an index. In addition, the IgE antibody amount is shown in terms of a maximum dilution (unit: %) of serum showing positive reaction (blue spot having a diameter of not less than 5 mm).
Two groups of the remaining three groups were used as Example groups ⑥ and 0. A physiological saline solution of 10 % Nikkol containing VIE-MAN was administered intraperitoneally to each rat of Example group ⑥ in such a dose that the amount of VIE-MAN was 30 mg/kg/day for 11 days after the group separation. And, a physiological saline solution of 10 % Nikkol containing VIE-MAN was administered intraperitoneally to each rat of Example group 0 every other day (number of days for administration: 6 days) in such a dose that the amount of VIE-MAN was 100 mg/kg/day for 11 days after the group separation. Then, on 15th day after the group separation, the serum of each rat was collected, and measured for an IgE antibody amount in the same manner as that for Control group.
One remaining group of the four groups was used as Comparative Example group @. A physiological saline solution of 10 % Nikkol containing hydrocortisone which was an adrenocortical hormone preparation was administered intraperitoneally to each rat in such a dose that the amount of the hydrocortisone was 10 mg/kg/day for the consecutive 11 days after the group separation. Then, on 15th day after the group separation, the serum of each rat was collected, and measured for an IgE antibody amount in the same manner as that for Example groups 6 and ⑦.

[4] = system: delayed-type hypersensitivity; assay: picryl chloride-induced delayed-type hypersensitivity, ear swelling ratio; format: in vivo, mice; settings: Example 1, Fig. 1; VIE-MAN 10, 30, 100 mg/kg/day versus methotrexate 1 mg/kg/day, intraperitoneally
Protocol: 76 Male mice (C57BU6Ncrj) weighing 18 to 20 g were used. The abdominal portion of each mouse was shaved such that the shaved portion was about 1 cm^2. Thereafter, 20 µl of an ethanol solution of 7 % picryl chloride was applied to the shaved portions for sensitization.
Eighteen out of the 76 mice were used as Control group. A physiological saline solution containing 10 % Nikkol (Nikkol: trade name, dissolving aid, supplied by Nikko Chemical Co., Ltd.) was administered intraperitoneally to the 18 mice for the consecutive 5 days after the sensitization, and ear thickness of each of these 18 mice was measured on the eighth day after the sensitization. Thereafter, 20 µl of an olive oil solution of 1 % picryl chloride was applied to the ear of each of the mice to cause delayed-type hypersensitivity.
The above pharmaceutical solutions were administered intraperitoneally at the above-described doses for the five consecutive days after the sensitization, and ear thickness of each of these mice was measured on the eighth day after the sensitization. Thereafter, 20 µl of an olive oil solution of 1 % picryl chloride was applied to the ear of each of the mice to cause delayed-type hypersensitivity.
24 Hours after the delayed-type hypersensitivity was induced, the swelling of the ear of each of the mice of Control group and Example groups ①, ②and③ was measured with a dial thickness gauge. On the basis of the values of the ear thickness measured before the application of the olive oil solution of 1 % picryl chloride, the swelling ratio of each of Example groups ①, ② and ③ and Control group was determined.
And, the swelling ratio of the mice was determined.
At first, the abdominal portion of each of forty ICR male mice weighing 20 to 25 g was shaved such that the shaved portion was about 1 cm^2. Thereafter, 20 µl of an ethanol solution of 7 % picryl chloride was applied to the shaved portions for sensitization.

Cc1c(C)c2c(c(C)c1OC1OC(CO)C(O)C(O)C1O)CCC(C)(CCCC(C)CCCC(C)CCCC(C)C)O2 (racemic) [VIE-GAL, dl-a-tocopheryl-,B-galactoside]
inhibition activity against antigen-adjuvant-induced inflammations ([1]; Example 5, Fig. 4, 10 mg/kg): also superior | average of the swelling ratios ([1]; Example 5, Fig. 4, 0.5 hour after administration of antigen and adjuvant, versus Control group): significantly lower than that of the swelling ratios of Control group | side effect on the digestive system [2]: nearly similar results to that of the test on VIE-MAN

CC(=O)OCC(=O)[C@@]1(O)CC[C@H]2[C@@H]3CCC4=CC(=O)CC[C@]4(C)[C@H]3C(=O)C[C@@]21C [cortisone acetate]
inhibition activity against carrageenin-induced inflammation ([3]; VIE-MAN 10, 30, 100 mg/kg, depending upon its dose, comparators 10 mg/kg, intraperitoneally): significant activity at and after 0.5 hour | inhibition activity against carrageenin-induced inflammation compared with VIE-MAN ([3]; comparators 10 mg/kg intraperitoneally): lower than that of VIE-MAN

CN(C)CCOC(c1ccccc1)c1ccccc1 [diphenhydramine, reference compound]
inhibition activity against antigen-adjuvant-induced inflammations ([1]; Example 4, Fig. 3): no inhibition activity was found

C[C@]12CCC(=O)C=C1CC[C@@H]1[C@@H]2[C@@H](O)C[C@@]2(C)[C@H]1CC[C@]2(O)C(=O)CO [hydrocortisone, reference compound]
inhibition activity against the IgE antibody production (IgE antibody; Example 3 / Comparative Example 2, VIE-MAN 30 or 100 mg/kg/day, hydrocortisone 10 mg/kg/day, intraperitoneally): lower than that of VIE-MAN | IgE antibody amount in serum, Average value (IgE antibody; group average, (total 11 days) intraperitoneally, maximum dilution of serum showing positive reaction): 473.6 | inhibition activity against antigen-adjuvant-induced inflammations ([1]; Example 4, Fig. 3): no inhibition activity was found

CN(Cc1cnc2nc(N)nc(N)c2n1)c1ccc(C(=O)N[C@@H](CCC(=O)O)C(=O)O)cc1 [methotrexate, reference compound]
preventive and therapeutical effect on delayed-type hypersensitivity (comparison) [4]: VIE-MAN was superior to methotrexate
